“And” between values parts separate entries of the source, which are not always exact repeats. Identical values can stand only once. Inconclusive results and toxic doses are left out. Cut-off read from the data, not from the text of the source: active = T/C of 150% or more; inactive = T/C below 125%.
Test system: L1210 leukemia ip in BDF1 mice, survival T/C
Test: NCI In Vivo Anticancer Drug Screen. Data for tumor model L1210 Leukemia (intraperitoneal) in B6D2F1 (BDF1) mice
Settings: endpoint: mean survival time, higher = longer survival
Method in brief: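 Each compound was tested against a transplantable tumor grown in mice. The endpoint was survival, with treated animals benchmarked against vehicle controls as a simple ratio.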

[1] = dose: 75.0 mg/kg/injection, schedule: Q01DX001 (ip), vehicle: saline
[2] = dose: 150.0 mg/kg/injection, schedule: Q01DX001 (ip), vehicle: saline
[3] = dose: 300.0 mg/kg/injection, schedule: Q01DX001 (ip), vehicle: saline
[4] = dose: 25.0 mg/kg/injection, schedule: Q01DX009 (ip), vehicle: Klucel (hydroxypropylcellulose) (HPC)
[5] = dose: 50.0 mg/kg/injection, schedule: Q01DX009 (ip), vehicle: Klucel (hydroxypropylcellulose) (HPC)
[6] = dose: 100.0 mg/kg/injection, schedule: Q01DX009 (ip), vehicle: Klucel (hydroxypropylcellulose) (HPC)
[7] = dose: 100.0 mg/kg/injection, schedule: Q04DX002 (ip), vehicle: Klucel (hydroxypropylcellulose) (HPC)
[8] = dose: 200.0 mg/kg/injection, schedule: Q04DX002 (ip), vehicle: Klucel (hydroxypropylcellulose) (HPC)
[9] = dose: 400.0 mg/kg/injection, schedule: Q04DX002 (ip), vehicle: Klucel (hydroxypropylcellulose) (HPC)
[10] = dose: 200.0 mg/kg/injection, schedule: Q01DX009 (ip), vehicle: Klucel (hydroxypropylcellulose) (HPC)
[11] = dose: 100.0 mg/kg/injection, schedule: Q01DX009 (ip), vehicle: saline with Tween-80
[12] = dose: 200.0 mg/kg/injection, schedule: Q01DX009 (ip), vehicle: saline with Tween-80
[13] = dose: 400.0 mg/kg/injection, schedule: Q01DX009 (ip), vehicle: saline with Tween-80

Measured: T/C

CCOC(=O)N/N=C/c1ccccc1OC
inactive: [1] 90 % of control | [2] 90 % of control | [3] 96 % of control

CCC1C(=O)NCCNC1=O
inactive: [1] 106 % of control | [2] 93 % of control | [3] 96 % of control

O=C(O)c1ccc(=O)oc1
inactive: [4] 100 % of control | [5] 87 % of control | [6] 90 % of control

CN(C)c1ccc(C#N)cc1
inactive: dose: 1.5 mg/kg/injection, schedule: Q04DX002 (ip), vehicle: Klucel (hydroxypropylcellulose) (HPC) 107 % of control | dose: 3.1 mg/kg/injection, schedule: Q04DX002 (ip), vehicle: Klucel (hydroxypropylcellulose) (HPC) 107 % of control | dose: 6.25 mg/kg/injection, schedule: Q04DX002 (ip), vehicle: Klucel (hydroxypropylcellulose) (HPC) 97 % of control and 111 % of control

Cc1c(C)c(C)c(C(=O)C[n+]2ccccc2)c(C)c1C
inactive: dose: 12.5 mg/kg/injection, schedule: Q04DX002 (ip), vehicle: saline 104 % of control | dose: 25.0 mg/kg/injection, schedule: Q04DX002 (ip), vehicle: saline 96 % of control | dose: 50.0 mg/kg/injection, schedule: Q04DX002 (ip), vehicle: saline 107 % of control

C[C@]12CC[C@@H]3c4ccc(O)cc4CC[C@H]3[C@@H]1CC[C@@H]2O
inactive: dose: 500.0 mg/kg/injection, schedule: Q01DX Z (sc), vehicle: water 93 % of control | dose: 1000.0 mg/kg/injection, schedule: Q01DX Z (sc), vehicle: water 90 % of control

CCN(CC)C(=O)Nc1cccc(N)c1
inactive: [7] 97 % of control | [8] 101 % of control | [9] 97 % of control

C=CCN(C)c1ccc(C(=O)OC)cc1
inactive: dose: 100.0 mg/kg/injection, schedule: Q01DX001 (ip), vehicle: carboxymethylcellulose (CMC) 102 % of control | dose: 200.0 mg/kg/injection, schedule: Q01DX001 (ip), vehicle: carboxymethylcellulose (CMC) 94 % of control | dose: 400.0 mg/kg/injection, schedule: Q01DX001 (ip), vehicle: carboxymethylcellulose (CMC) 100 % of control

CCc1ccccc1NC(=O)Nc1ccc(C(=O)O)c(O)c1
inactive: [6] 95 % of control | [7] 98 % of control | [10] 101 % of control | [8] 102 % of control | dose: 400.0 mg/kg/injection, schedule: Q01DX009 (ip), vehicle: Klucel (hydroxypropylcellulose) (HPC) 108 % of control | [9] 102 % of control

OCCc1ccccc1
inactive: [11] 96 % of control | [12] 100 % of control | [13] 99 % of control

CC(Br)C(=O)NC(C)C(=O)O (stereo unspecified)
inactive: [11] 89 % of control | [12] 86 % of control | [13] 91 % of control

Cc1ccc(C(=O)O)cc1-n1c(-c2ccc(Cl)cc2)nnc1-c1ccc(Br)cc1
inactive: [5] 92 % of control | dose: 100.0 mg/kg/injection, schedule: Q01DX001 (ip), vehicle: Klucel (hydroxypropylcellulose) (HPC) 97 % of control | [6] 93 % of control | dose: 200.0 mg/kg/injection, schedule: Q01DX001 (ip), vehicle: Klucel (hydroxypropylcellulose) (HPC) 96 % of control | [10] 93 % of control

CN(C)Cc1c[nH]c2ccsc12
inactive: dose: 100.0 mg/kg/injection, schedule: Q04DX003 (ip), vehicle: saline with Tween-80 98 % of control | dose: 200.0 mg/kg/injection, schedule: Q04DX003 (ip), vehicle: saline with Tween-80 87 % of control

CCOC(=O)C(Cc1c[nH]c2ccccc12)[N+](=O)[O-] (stereo unspecified)
inactive: dose: 100.0 mg/kg/injection, schedule: Q04DX003 (sc), vehicle: olive oil, sesame oil, peanut oil 97 % of control | dose: 200.0 mg/kg/injection, schedule: Q04DX003 (sc), vehicle: olive oil, sesame oil, peanut oil 98 % of control | dose: 400.0 mg/kg/injection, schedule: Q04DX003 (sc), vehicle: olive oil, sesame oil, peanut oil 101 % of control

NC1C(O)C(O)C(Nc2ncnc3nc[nH]c23)OC1C(O)CO (stereo unspecified)
inactive: dose: 0.44 mg/kg/injection, schedule: Q## X000 (ip), vehicle: carboxymethylcellulose (CMC) 98 % of control | dose: 0.66 mg/kg/injection, schedule: Q## X000 (ip), vehicle: carboxymethylcellulose (CMC) 100 % of control | dose: 1.0 mg/kg/injection, schedule: Q## X000 (ip), vehicle: carboxymethylcellulose (CMC) 100 % of control | dose: 1.5 mg/kg/injection, schedule: Q01DX009 (ip), vehicle: saline 104 % of control | dose: 1.5 mg/kg/injection, schedule: Q## X000 (ip), vehicle: carboxymethylcellulose (CMC) 100 % of control | dose: 3.0 mg/kg/injection, schedule: Q01DX001 (ip), vehicle: saline 107 % of control | dose: 3.0 mg/kg/injection, schedule: Q01DX009 (ip), vehicle: saline 103 % of control | dose: 6.0 mg/kg/injection, schedule: Q01DX001 (ip), vehicle: saline 107 % of control | dose: 6.0 mg/kg/injection, schedule: Q01DX009 (ip), vehicle: saline 101 % of control | dose: 12.0 mg/kg/injection, schedule: Q01DX001 (ip), vehicle: saline 107 % of control | dose: 12.0 mg/kg/injection, schedule: Q01DX009 (ip), vehicle: saline 98 % of control | dose: 24.0 mg/kg/injection, schedule: Q01DX001 (ip), vehicle: saline 104 % of control | dose: 24.0 mg/kg/injection, schedule: Q01DX009 (ip), vehicle: saline 101 % of control | dose: 35.0 mg/kg/injection, schedule: Q01DX009 (ip), vehicle: saline 95 % of control | dose: 48.0 mg/kg/injection, schedule: Q01DX001 (ip), vehicle: saline 103 % of control | dose: 55.0 mg/kg/injection, schedule: Q01DX009 (ip), vehicle: saline 97 % of control | [1] 96 % of control | dose: 80.0 mg/kg/injection, schedule: Q01DX009 (ip), vehicle: saline 97 % of control | dose: 110.0 mg/kg/injection, schedule: Q01DX001 (ip), vehicle: saline 98 % of control | dose: 165.0 mg/kg/injection, schedule: Q01DX001 (ip), vehicle: saline 101 % of control | dose: 245.0 mg/kg/injection, schedule: Q01DX001 (ip), vehicle: saline 95 % of control | dose: 370.0 mg/kg/injection, schedule: Q01DX001 (ip), vehicle: saline 103 % of control

CC[n+]1ccc(Nc2ccc(NC(=O)c3ccc(Nc4cc[n+](CC)c5ccc([N+](=O)[O-])cc45)cc3)cc2)cc1
inactive: dose: 4.13 mg/kg/injection, schedule: Q04DX003 (ip), vehicle: saline sonified 114 % of control | dose: 4.5 mg/kg/injection, schedule: Q01DX009 (ip), vehicle: Klucel (hydroxypropylcellulose) (HPC) 117 % of control | dose: 6.25 mg/kg/injection, schedule: Q04DX003 (ip), vehicle: Klucel (hydroxypropylcellulose) (HPC) 108 % of control | dose: 6.25 mg/kg/injection, schedule: Q04DX003 (ip), vehicle: saline sonified 117 % of control | dose: 9.38 mg/kg/injection, schedule: Q04DX003 (ip), vehicle: saline sonified 115 % of control | dose: 10.44 mg/kg/injection, schedule: Q01DX009 (ip), vehicle: saline with Tween-80 117 % of control | dose: 11.0 mg/kg/injection, schedule: Q01DX009 (ip), vehicle: saline 115 % of control | dose: 12.5 mg/kg/injection, schedule: Q01DX001 (ip), vehicle: Klucel (hydroxypropylcellulose) (HPC) 100 % of control | dose: 12.5 mg/kg/injection, schedule: Q04DX003 (ip), vehicle: Klucel (hydroxypropylcellulose) (HPC) 112 % of control | dose: 25.0 mg/kg/injection, schedule: Q01DX001 (ip), vehicle: Klucel (hydroxypropylcellulose) (HPC) 102 % of control | dose: 25.0 mg/kg/injection, schedule: Q04DX003 (ip), vehicle: Klucel (hydroxypropylcellulose) (HPC) 122 % of control
active: dose: 16.5 mg/kg/injection, schedule: Q01DX009 (ip), vehicle: Klucel (hydroxypropylcellulose) (HPC) 175 % of control | [4] 160 % of control | dose: 25.0 mg/kg/injection, schedule: Q01DX009 (ip), vehicle: saline sonified 230 % of control | dose: 25.0 mg/kg/injection, schedule: Q01DX009 (ip), vehicle: saline 160 % of control | dose: 37.5 mg/kg/injection, schedule: Q01DX009 (ip), vehicle: saline 184 % of control

CSc1ncc2c(Cl)nn(C)c2n1
inactive: dose: 37.5 mg/kg/injection, schedule: Q01DX001 (ip), vehicle: Klucel (hydroxypropylcellulose) (HPC) 94 % of control | dose: 75.0 mg/kg/injection, schedule: Q01DX001 (ip), vehicle: Klucel (hydroxypropylcellulose) (HPC) 92 % of control | dose: 150.0 mg/kg/injection, schedule: Q01DX001 (ip), vehicle: Klucel (hydroxypropylcellulose) (HPC) 90 % of control
